Assay results as given in patent publication US20110028445A1, “Urea derivatives of benzomorphanes and related scaffolds, medicaments containing such compounds and their use” (BOEHRINGER INGELHEIM INTERNATIONAL GMBH, priority 2008, published 2011).

Target: T1, 11β-HSD1 (Homo sapiens, UniProt P28845)
T1 construct: detecting cortisol generated from cortisterone by human liver microsomes; from tissue; host or cells: human liver microsomes
Assay: In vitro inhibition of 11β-HSD1, HTRF detection of cortisol generated by human liver microsomes
Type: biochemical
Details: compound concentration 1 μM, 100% indicates no inhibition, zero or below zero indicates complete inhibition, cortisone 80 nM, 1 hour at 37° C., read-out: % CTL at 1 μM
Protocol: Briefly, compounds were incubated for 1 hour at 37° C. in Tris buffer (20 mM tris, 5 mM EDTA, pH 6.0) containing NADPH (200 μM) and cortisone (80 nM). Cortisol generated in the reaction is then detected with a competitive immunoassay, involving two HTRF conjugates: cortisol linked to XL665 and anti-cortisol antibody labeled with Europium cryptate. The incubation period for detection reaction was typically 2 hours. The amount of cortisol is determined by reading the time-resolved fluorescence of the wells (Ex 320/75 nm; Em 615/8.5 nm and 665/7.5 nm). The ratio of the two emission signals is then calculated (Em665*10000/Em615). […] Each assay also contained a calibration curve with cortisol to transform the fluorescent data into cortisol concentrations. Percent inhibition of each compound was determined relative to the carbenoxolone signal and IC50 curves were generated.
The % CTL values of some example compounds at a concentration of 1 μM are provided in the following Table 2 wherein 100% indicates no inhibition and a value of zero or below zero indicates complete inhibition. The measurement of % CTL is described hereinbefore.

T1 sequence (P28845 whole entry): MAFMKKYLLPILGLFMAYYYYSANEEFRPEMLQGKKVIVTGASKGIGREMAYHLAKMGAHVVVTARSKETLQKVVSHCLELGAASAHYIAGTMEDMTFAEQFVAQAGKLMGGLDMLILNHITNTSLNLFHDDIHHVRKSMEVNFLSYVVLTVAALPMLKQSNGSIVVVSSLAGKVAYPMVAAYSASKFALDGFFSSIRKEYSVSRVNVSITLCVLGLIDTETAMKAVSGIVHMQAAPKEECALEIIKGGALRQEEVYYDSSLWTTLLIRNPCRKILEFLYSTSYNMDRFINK

Compound | remaining activity at 1 µM [%]
CC1(C)[C@H]2Cc3c(O)cccc3[C@]1(C)CCN2C(=O)N1CCCC(O)C1 (stereo partly shown) [Example 23] | -9
CC1(C)[C@H]2Cc3c(O)cccc3[C@]1(C)CCN2C(=O)N1CCc2cccc(O)c2C1 [Example 46, (8-Hydroxy-3,4-dihydro-1H-isoquinolin-2-yl)-[(2R,6S)-10-hydroxy-6,11,11-trimethyl-1,2,5,6-tetrahydro-4H-2,6-methano-benzo[d]azocin-3-yl]-methanone] | -10
CC1(C)[C@H]2Cc3c(OCc4ccccc4)cccc3[C@]1(C)CCN2C(=O)N1CCCCC1 [Example 32] | 82
CC1(C)[C@H]2Cc3c(O)cccc3[C@]1(C)CCN2C(=O)N1CCC(O)C1 (stereo partly shown) [Example 29] | 30
CC1(C)[C@H]2Cc3ccccc3[C@]1(C)CCN2C(=O)N1CCC(c2ccccc2)C1 (stereo partly shown) [Example 61] | 7
CC1(C)[C@H]2Cc3c(O)cccc3[C@]1(C)CCN2C(=O)N1CCCCC1 [Example 1, [(2R,6S)-10-Hydroxy-6,11,11-trimethyl-1,2,5,6-tetrahydro-4H-2,6-methano-benzo[d]azocin-3-yl]-piperidin-1-yl-methanone] | -46
Cc1ccc2c(c1)CCCN2C(=O)N1CC[C@@]2(C)c3cccc(O)c3C[C@@H]1C2(C)C [Example 48] | -18
CC1(C)[C@H]2Cc3c(O)cccc3[C@]1(C)CCN2C(=O)N1CCCC(C(=O)Nc2ccccc2)C1 (stereo partly shown) [Example 42] | 32
CC1(C)[C@H]2Cc3ccccc3[C@]1(C)CCN2C(=O)N1CCOC[C@H]1c1ccccc1 [Example 67] | 71
CC(C)(O)CC1(c2ccccc2)CCN(C(=O)N2CC[C@@]3(C)c4ccccc4C[C@@H]2C3(C)C)C1 (stereo partly shown) [Example 78] | 61
CC1(C)[C@H]2Cc3c(O)cccc3[C@]1(C)CCN2C(=O)N1[C@@H]2CC[C@H]1C[C@@H](c1ccc(F)cc1)C2 [Example 17] | -43
CC1(O)CCN(C(=O)N2CC[C@@]3(C)c4ccccc4C[C@@H]2C3(C)C)CC1 [Example 54] | -25
CC1(C)[C@H]2Cc3c(O)cccc3[C@]1(C)CCN2C(=O)N1CCc2ccccc2C1 [Example 11] | 18
CC1(C)[C@H]2Cc3c(O)cccc3[C@]1(C)CCN2C(=O)N1CCCC2(CCCNC2=O)C1 (stereo partly shown) [Example 43] | -45
CC1(C)[C@H]2Cc3ccccc3[C@]1(C)CCN2C(=O)N1CCC[C@H](CO)C1 [Example 64] | -33
CC1(C)[C@H]2Cc3ccccc3[C@]1(C)CCN2C(=O)N1CCC(O)CC1 [Example 70] | -15
CC1(C)[C@H]2Cc3c(O)cccc3[C@]1(C)CCN2C(=O)N1CCC(CO)CC1 [Example 25] | -43
CC1(C)[C@H]2Cc3c(O)cccc3[C@]1(C)CCN2C(=O)N1CC(O)C1 [Example 24] | 70
CC1(C)[C@H]2Cc3c(O)cccc3[C@]1(C)CCN2C(=O)N1CCCC(CO)C1 (stereo partly shown) [Example 30] | -54
CC1(C)[C@H]2Cc3c(O)cccc3[C@]1(C)CCN2C(=O)N1CCc2cc(O)ccc21 [Example 53] | 7

Compound | remaining activity at 1 µM [%]
CC1(C)[C@H]2Cc3c(O)cccc3[C@]1(C)CCN2C(=O)N1CCC(O)CC1 [Example 13] | -53
CC1(C)[C@H]2Cc3ccccc3[C@]1(C)CCN2C(=O)N1CCOCC1c1ccccc1 (stereo partly shown) [Example 68] | 87
CC1(C)[C@H]2Cc3cc(C#N)ccc3[C@]1(C)CCN2C(=O)N1CCCCC1 [Example 36, (2R,6S)-6,11,11-Trimethyl-3-(piperidine-1-carbonyl)-1,2,3,4,5,6-hexahydro-2,6-methano-benzo[d]azocine-9-carbonitrile] | -31
CCOC(=O)C1CCCN(C(=O)N2CC[C@@]3(C)c4ccccc4C[C@@H]2C3(C)C)C1 (stereo partly shown) [Example 63] | 47
C[C@@H]1[C@H]2Cc3ccc(O)cc3[C@]1(C)CCN2C(=O)N1CCCCC1 [Example 20] | -39
CC1(C)[C@H]2Cc3c(O)cccc3[C@]1(C)CCN2C(=O)N1CCc2nc[nH]c2C1 [Example 15] | 14
CC1(C)[C@H]2Cc3c(O)cccc3[C@]1(C)CCN2C(=O)N1CCCC(c2nnn[nH]2)C1 (stereo partly shown) [Example 59] | 70
COC(=O)CC1(c2ccccc2)CCN(C(=O)N2CC[C@@]3(C)c4ccccc4C[C@@H]2C3(C)C)C1 (stereo partly shown) [Example 75] | 26
CC1(C)[C@H]2Cc3c(O)cccc3[C@]1(C)CCN2C(=O)N1CCCC(c2nc3ccccc3[nH]2)C1 (stereo partly shown) [Example 52] | 27
CC1(C)[C@H]2Cc3c(O)cccc3[C@]1(C)CCN2C(=O)N1CCc2ccccc21 [Example 18] | -8
CC1(C)[C@H]2Cc3c(OCC#N)cccc3[C@]1(C)CCN2C(=O)N1CCCCC1 [Example 33] | 23
CC(C)(O)C1CCN(C(=O)N2CC[C@@]3(C)c4ccccc4C[C@@H]2C3(C)C)CC1 [Example 65] | 2
CC(C)(C)C1COc2ccccc2N1C(=O)N1CC[C@@]2(C)c3cccc(O)c3C[C@@H]1C2(C)C (stereo partly shown) [Example 51] | 94
CC1(C)[C@H]2Cc3c(O)cccc3[C@]1(C)CCN2C(=O)N1CCCC2(CCNC2=O)C1 (stereo partly shown) [Example 55] | -31
COC1CCN(C(=O)N2CC[C@@]3(C)c4cccc(O)c4C[C@@H]2C3(C)C)CC1 [Example 12] | -39
CC1(C)[C@H]2Cc3c(O)cccc3[C@]1(C)CCN2C(=O)N1CCc2ccsc2C1 [Example 7, (4,7-Dihydro-5H-thieno[2,3-c]pyridin-6-yl)-[(2R,6S)-10-hydroxy-6,11,11-trimethyl-1,2,5,6-tetrahydro-4H-2,6-methano-benzo[d]azocin-3-yl]-methanone] | -32
CC1(C)[C@H]2Cc3c(O)cccc3[C@]1(C)CCN2C(=O)N1CCCc2cc(NC(=O)C(F)(F)F)ccc21 [Example 49] | 23
CC1(C)[C@H]2Cc3c(O)cccc3[C@]1(C)CCN2C(=O)N1CCn2cnnc2C1 [Example 47] | 94
CC1(C)[C@H]2Cc3c(O)cccc3[C@]1(C)CCN2C(=O)N1CCC(O)(CO)CC1 [Example 37] | -7
CC1(C)[C@H]2Cc3c(O)cccc3[C@]1(C)CCN2C(=O)N1CCCC(C(N)=O)C1 (stereo partly shown) [Example 41] | -56

Compound | remaining activity at 1 µM [%]
CC(C)(O)[C@H]1CCCN(C(=O)N2CC[C@@]3(C)c4ccccc4C[C@@H]2C3(C)C)C1 [Example 69] | 6
CC1(C)[C@H]2Cc3ccccc3[C@]1(C)CCN2C(=O)N1CCC(O)(C(F)(F)F)CC1 [Example 72] | -11
CC1(C)[C@H]2Cc3c(O)cccc3[C@]1(C)CCN2C(=O)N1CCc2cc(O)ccc2C1 [Example 44] | -4
CC1(C)[C@H]2Cc3c(O)cccc3[C@]1(C)CCN2C(=O)N1CCCC1CO (stereo partly shown) [Example 28] | 36
CC1(C)[C@H]2Cc3ccccc3[C@]1(C)CCN2C(=O)N1[C@@H]2CC[C@H]1C[C@@](O)(C(F)(F)F)C2 [Example 80] | 70
CC1(C)[C@H]2Cc3c(O)cccc3[C@]1(C)CCN2C(=O)N1CCCc2ccccc21 [Example 16] | -41
CC1(C)[C@H]2Cc3c(O)cccc3[C@]1(C)CCN2C(=O)N1Cc2ccccc2C1 [Example 10] | 53
CC1(C)[C@H]2Cc3c(ccc(C#N)c3O)[C@]1(C)CCN2C(=O)N1CCCCC1 [Example 35, (2R,6S)-10-Hydroxy-6,11,11-trimethyl-3-(piperidine-1-carbonyl)-1,2,3,4,5,6-hexahydro-2,6-methano-benzo[d]azocine-9-carbonitrile] | -30
CC1(C)[C@H]2Cc3ccccc3[C@]1(C)CCN2C(=O)N1CCC(CCO)(c2ccccc2)C1 (stereo partly shown) [Example 77] | 30
CC1(C)[C@H]2Cc3ccccc3[C@]1(C)CCN2C(=O)N1[C@@H]2CC[C@H]1C[C@@H](O)C2 [Example 74] | -17
C[C@@H]1[C@H]2Cc3ccc(C#N)cc3[C@]1(C)CCN2C(=O)N1CCCCC1 [Example 21] | -28
CC1(C)[C@H]2Cc3c(O)cccc3[C@]1(C)CCN2C(=O)N1CCOCC1 [Example 3] | 84
CC1(C)[C@H]2Cc3ccccc3[C@]1(C)CCN2C(=O)N1CCC[C@@H](CO)C1 [Example 71, [(R)-3-Hydroxymethyl-piperidin-1-yl]-[(2R,6S)-6,11,11-trimethyl-1,2,5,6-tetrahydro-4H-2,6-methano-benzo[d]azocin-3-yl)-methanone] | -18
CC1(C)[C@H]2Cc3c(O)cccc3[C@]1(C)CCN2C(=O)N1CCCC(O)CC1 (stereo partly shown) [Example 26] | -41
CC1(C)[C@H]2Cc3ccccc3[C@]1(C)CCN2C(=O)N1[C@@H]2CC[C@H]1CC(=O)C2 [Example 76] | -10
CC1(C)[C@H]2Cc3c(O)cccc3[C@]1(C)CCN2C(=O)N1CCc2ccc(O)cc2C1 [Example 58] | -37
CC1(O)CCN(C(=O)N2CC[C@@]3(C)c4cccc(O)c4C[C@@H]2C3(C)C)CC1 [Example 27] | -41
CC1(C)[C@H]2Cc3ccccc3[C@]1(C)CCN2C(=O)N1CCCCC1 [Example 19] | -47
